Results taken from US8709506B2, “Synergistic compositions for the treatment of topical viral infections” (Vitro Bio Sarl, priority 2010, dated 2014).

How the values were obtained:
[1] = test system: influenza virus; assay type: cell-based; conditions: for % cell death after 72 h TCID50 influenza virus infection: protease 0.5 μg/ml, MDCK cells, serum free medium, virus control 48.21 ± 6.77
[2] = test system: herpes virus; assay type: cell-based; conditions: for % cell death after 72 h TCID50 herpes virus infection: protease 0.5 μg/ml, Vero cells, serum free medium, virus control 56.0 ± 2.3

Row | Substance | % increase in influenza viral growth compared to virus control [1] | % cell death after 72 h TCID50 influenza virus infection [1] [%] | % increase in herpes virus growth compared to controls [2] | % cell death after 72 h TCID50 herpes virus infection [2] [%]
1 | MMP-1: purified human MMP 1 (interstitial and fibroblast collagenase), AnaSpec | +63.87% | 47.76 ± 7.26 | +8.43% | 66.32 ± 7.11
2 | MMP-3: purified human MMP 3 (stromelysin-1), AnaSpec | −8.49% | – | +7.57% | 64.16 ± 4.29
3 | MMP-7: purified human MMP7 (proenzyme), AnaSpec | +50.92% | 72.76 ± 5.96 | +1.96% | 57.10 ± 6.68
4 | MMP-10: purified human MMP-10 (stromelysin 2), AnaSpec | +8.26% | 52.19 ± 7.56 | +25.82% | 70.46 ± 5.41
